According to US20160038482A1 (CHANRX CORPORATION, priority 2013, published 2016):
Like-named read-outs stand apart in the source and are kept apart here.

How the values were obtained:
[1] = Example 3: daily doses for 11 consecutive days, PK and hemodynamics; assay type: in vivo, human; conditions: for half-life / Cmax: human, plasma, 11 days; for half-life: read-out: PK Data (Mean +/− SD) T1/2 (converted); for Cmax: read-out: PK Data (Mean +/− SD) CMax
[2] = Example 1: plasma concentrations of vanoxerine and metabolites after a 300 mg dose; assay type: in vivo, human; conditions: low concentration group, any time point
Procedure: Each patient gave samples before administration of their dose, and then again at nine further time points, 30 minutes after administration, 1, 2, 3, 4, 6, 8, 12, and 24 hours post administration.

[3] = tested on: recent onset symptomatic AF/AFL; assay: Example 6: conversion of recent onset AF/AFL, placebo-controlled double-blind; assay type: in vivo, human; conditions: for Conversion of Atrial Flutter, Conversion, %: pure atrial flutter N=4, any time within 24 hours; for conversion: all doses
Procedure: The vanoxerine or identical appearing placebo was randomly assigned and administered in a double-blinded fashion. Definition of “pure” atrial flutter: only Atrial Flutter (no AF) seen at -30, -15, and 0 time points. Conversion at any time within 24 hours.

[4] = multiple daily dosing: hemodynamic effects; assay type: in vivo, human
Source text: However, control and prevention of events of cardiac arrhythmia are important to these patients to prevent future re-occurrences and the deleterious effects and morbidity.

[5] = healthy subjects, cited from earlier work
[6] = tested on: cardiac arrhythmia; assay type: in vivo, human; conditions: second patient, supraventricular tachycardia, 2 x 200 mg, after first dose
[7] = Example 6: adverse events; assay type: in vivo, human
Source text: The vanoxerine or identical appearing placebo was randomly assigned and administered in a double-blinded fashion.

[8] = Example 4: daily doses for 14 days in healthy patients; assay type: in vivo, human
Procedure: A standardized meal was served 15 minutes prior to each dosing.

[9] = Example 5: daily doses for 7 days; assay type: in vivo, human
[10] = pharmacokinetic parameters from tests in dogs; assay type: in vivo; conditions: dog, plasma
Source text: Vanoxerine is primarily eliminated from the body in urine, bile, and feces. Indeed, a substantial amount of the drug is expelled, unabsorbed into the feces. […] However, the long half-life of the drug may actually be utilized to minimize the continuous or regular dosing of the drug.

## Fc1ccc(C(OCCN2CCN(CCCc3ccccc3)CC2)c2ccc(F)cc2)cc1 [Vanoxerine, 1-[2-[bis(4-fluorophenyl)methoxy]ethyl]-4-(3-phenylpropyl)piperazine]
[1]; 25 mg daily
  plasma levels detectability: not detectable after 8 hours
[1]; 50, 75, and 100 mg daily
  plasma levels detectability: detectable at 24 hours
  time to steady state: ≤ 8 days
[1]; 75 and 100 mg daily doses
  heart rate and systolic blood pressure: increased slightly in most subjects
[1]; across 50, 75 and 100 mg doses
  PK linearity: linear and dose proportional
[1]; 50 mg daily
  half-life: 49.4 h
[1]; 75 mg daily
  Cmax: 27.4 ng/mL
  half-life: 52.5 h
[1]; 100 mg daily
  Cmax: 40.2 ng/mL
  half-life: 15.4 h
[1]; steady state
  Cmax, ss, and AUC0-24ss inter-subject variability: 55-85%
[1]; when daily doses are given
  half-life of the drug: increased half-life
[2]
  plasma levels (highest reached): ~40 ng/mL
[3]; 200 mg (22), 0-4 hr
  Percent conversion: 18%
[3]; 200 mg (22), 0-8 hr
  Percent conversion: 45%
[3]; 200 mg (22), 0-24 hr
  Percent conversion: 59%
[3]; 200 mg, 0-4 hours
  improvement of conversion (percent increase in conversion over placebo): 38%
[3]; 200 mg, 0-8 hours
  improvement of conversion (percent increase in conversion over placebo): 96%
[3]; 200 mg, 0-24 hours
  improvement of conversion (percent increase in conversion over placebo): 55%
[3]; 200 mg
  Conversion of Atrial Flutter, Conversion, %: 50%
[3]; 300 mg (25), 0-4 hr
  Percent conversion: 40%
[3]; 300 mg (25), 0-8 hr
  Percent conversion: 52%
[3]; 300 mg (25), 0-24 hr
  Percent conversion: 64%
[3]; 300 mg, 0-4 hours
  improvement of conversion (percent increase in conversion over placebo): 207%
[3]; 300 mg, 0-8 hours
  improvement of conversion (percent increase in conversion over placebo): 126%
[3]; 300 mg, 0-24 hours
  improvement of conversion (percent increase in conversion over placebo): 68%
[3]; 300 mg
  Conversion of Atrial Flutter, Conversion, %: 75%
[3]; 400 mg (25), 0-4 hr
  Percent conversion: 52%
[3]; 400 mg (25), 0-8 hr
  Percent conversion: 76%
[3]; 400 mg (25), 0-24 hr
  Percent conversion: 84%
[3]; 400 mg, 0-4 hours
  improvement of conversion (percent increase in conversion over placebo): 300%
[3]; 400 mg, 0-8 hours
  improvement of conversion (percent increase in conversion over placebo): 230%
[3]; 400 mg, 0-24 hours
  improvement of conversion (percent increase in conversion over placebo): 121%
[3]; 400 mg
  Conversion of Atrial Flutter, Conversion, %: 75%
[3]; at 12 hours
  conversion: greater than 50%
[3]; at about 7 hours
  conversion: greater than 40%
[3]; at about 16 hours
  conversion: ~60%
[3]; doses of 200, 300 and 400 mg
  conversion to sinus rhythm of recent onset symptomatic AF/AFL, dose dependence: highly statistically significant dose dependent increase
[4]; daily use over 7, 10, and 14 days, 75, 100, 125, and 150 mg a day
  heart rate and systolic blood pressure: increased heart rate and systolic blood pressure
[4]; multiple dosing, several subjects
  heart rate and systolic blood pressure: dose-related increases in heart rate and systolic blood pressure
[5]; daily repetitive dose of 50 mg
  side-effects: no side-effects should be expected
[5]; higher doses
  side-effects: concentration difficulties, increase systolic blood pressure, asthenia, and a feeling of drug influence
[6]
  time of conversion to normal sinus rhythm: about 6 hours
[7]; 200 mg (22)
  Adverse events: number of AEs reported: 8 AEs
  Adverse events: number of SAEs: 1 SAE
  Adverse events: subjects reporting, N (%): 4 (18%) subjects
[7]; 300 mg (25)
  Adverse events: number of AEs reported: 12 AEs
  Adverse events: subjects reporting, N (%): 7 (28%) subjects
[7]; 400 mg (25)
  Adverse events: number of AEs reported: 23 AEs
  Adverse events: number of SAEs: 1 SAE
  Adverse events: subjects reporting, N (%): 10 (40%) subjects
[7]; 200, 300 and 400 mg
  1:1 AFL post dose: No 1:1 AFL seen post dose in any subject
  proarrhythmia: absence of proarrhythmia
  tolerability: well tolerated at all doses
[8]; 25, 75, and 125 mg daily for 14 days
  time to steady state serum levels: 9 to 11 days
[8]; 25, 75, and 125 mg daily for 14 days, healthy patients, after standardized meal
  adverse events: No significant adverse events
[8]; higher doses compared with the lower doses
  steady state serum levels, dose proportionality: disproportionately and statistically greater levels at higher doses
[9]; 100 mg daily for 7 days
  systolic blood pressure and heart rate: increases in systolic blood pressure and heart rate were seen
[9]; 150 mg daily for 7 days
  systolic blood pressure and heart rate: increases in systolic blood pressure and in heart rate
[9]; 50, 100, and 150 mg daily, all patients
  time to steady state levels: within one week
[10]; oral
  Tmax: ~3 h
[10]; oral, read-out: systemic bioavailability
  bioavailability: 23%
[10]; read-out: T1/2 (elimination from the plasma) (converted)
  half-life: 22 h
